Converted amounts (≈) assume the structure as drawn. Some results are limits rather than exact numbers.

Broadly, the IC50 is the concentration needed to halve the response being measured.

Assay [1] relates to MG-63. In words: Cytotoxicity against human MG-63 cells. It is filed as functional, cell-based.
Assay [2] deals with Bel-7402. In words: Cytotoxicity against human Bel-7402 cells measured after 72 hrs by MTT assay. The settings on record: Bel-7402, 72 h. It is filed as functional, cell-based. On the technique in general: Tetrazolium dyes change colour on reduction, which living cells bring about.
The subject of assay [3] is SMMC-7721. In words: Cytotoxicity against human SMMC-7721 cells measured after 72 hrs by MTT assay. In kind it is functional, cell-based. The following applies: SMMC-7721, 72 h.
Assay [4] concerns Huh-7. Description: Cytotoxicity against human Huh-7 cells measured after 72 hrs by MTT assay. In kind it is functional, cell-based. The following applies: Huh-7, 72 h.
The subject of assay [5] is HCT-116. In words: Cytotoxicity against human HCT-116 cells measured after 72 hrs by MTT assay. In kind it is functional, cell-based. The following applies: HCT-116, 72 h.
Assay [6] deals with Bel7402/5-FU. Description: Cytotoxicity against human BEL-7402/5-FU cells measured after 72 hrs by MTT assay. It is filed as functional, cell-based.
Assay [7] deals with CCRF-CEM. In words: Cytotoxicity against human drug sensitive CCRF-CEM cells assessed as fluorescence incubated for 72 hrs by resazurin reduction assay. In kind it is functional, cell-based. For orientation: Resazurin is reduced to fluorescent resorufin, in cell work by metabolically active cells.
Assay [8] relates to ADR5000 cell line. Description: Cytotoxicity against human multidrug-resistant CEM/ADR5000 cells assessed as fluorescence incubated for 72 hrs by resazurin reduction assay. It is filed as functional, cell-based. The following applies: ADR5000, 72 h.
Assay [9] relates to DU-145. Description: Antiproliferative activity against human DU-145 cells incubated for 48 hrs by MTT assay. In kind it is functional, cell-based. The settings on record: DU-145, 48 h.
Assay [10] has as its system HCC1395. In words: Antiproliferative activity against human HCC1395 cells incubated for 48 hrs by MTT assay. In kind it is functional, cell-based. The settings on record: HCC1395, 48 h.
Assay [11] has as its system Keratinocyte. In words: Cytotoxicity against guinea pig ear keratinocytes using [3H]thymidine by liquid scintillation counting analysis. In kind it is functional, cell-based. The settings on record: Cavia porcellus.
Assay [12] is described as follows: Cytotoxicity against human U-87 MG cells by SRB assay. It is filed as functional, cell-based, U-87MG ATCC.
Assay [13] concerns KB. In words: Cytotoxicity against human KB cells by SRB assay. It is filed as functional, cell-based.
Assay [14] deals with 1A9. In words: Cytotoxicity against human 1A9 cells by SRB assay. In kind it is functional, cell-based. For orientation: In SRB staining, fixed cells bind dye roughly in proportion to their protein.
Assay [15] deals with SAOS-2. In words: Cytotoxicity against human SAOS-2 cells by SRB assay. It is filed as functional, cell-based.
Assay [16] relates to SK-MEL-2. Description: Cytotoxicity against human SK-MEL-2 cells by SRB assay. In kind it is functional, cell-based.
In assay [17] the test system is MCF7. In words: Cytotoxicity against human MCF7 cells by SRB assay. It is filed as functional, cell-based.
In assay [18] the test system is A549. Description: Cytotoxicity against human A549 cells by SRB assay. In kind it is functional, cell-based.
Assay [19] deals with A549. Description: Antiproliferative activity against human A549 cells incubated for 72 hrs by MTT assay. In kind it is functional, cell-based. The following applies: A549, 72 h.
The subject of assay [20] is Hs 683. Description: Antiproliferative activity against human Hs 683 cells incubated for 72 hrs by MTT assay. In kind it is functional, cell-based. The following applies: Hs 683, 72 h.
Assay [21] has as its system MDA-MB-231. In words: Antiproliferative activity against human MDA-MB-231 cells incubated for 72 hrs by MTT assay. It is filed as functional, cell-based. The following applies: MDA-MB-231, 72 h.
Assay [22] concerns T98G. In words: Antiproliferative activity against human T98G cells incubated for 72 hrs by MTT assay. In kind it is functional, cell-based.
For assay [23], the system named is PANC-1. Description: Antiproliferative activity against human PANC-1 cells incubated for 72 hrs by MTT assay. In kind it is functional, cell-based. The following applies: PANC-1, 72 h.
In assay [24] the test system is PC-3. In words: Cytotoxicity against human PC-3 cells measured after 48 hrs by MTT assay. It is filed as functional, cell-based. The following applies: PC-3, 48 h.
In assay [25] the test system is HGC-27. Description: Cytotoxicity against human HGC-27 cells measured after 48 hrs by MTT assay. In kind it is functional, cell-based. The settings on record: HGC-27, 48 h.
Assay [26] deals with MCF7. In words: Cytotoxicity against human MCF7 cells measured after 48 hrs by MTT assay. It is filed as functional, cell-based. The settings on record: MCF7, 48 h.
The subject of assay [27] is HeLa. In words: Cytotoxicity against human HeLa cells measured after 48 hrs by MTT assay. It is filed as functional, cell-based.
For assay [28], the system named is HT-29. Description: Cytotoxicity against human HT-29 cells measured after 48 hrs by MTT assay. In kind it is functional, cell-based. The settings on record: HT-29, 48 h.
Assay [29] deals with MCF7. In words: Cytotoxicity against human MCF7 cells. In kind it is functional, cell-based.
The subject of assay [30] is HeLa. In words: Cytotoxicity against human HeLa cells. In kind it is functional, cell-based.
Assay [31] relates to Hep 3B2. In words: Cytotoxicity against human Hep3B cells. It is filed as functional, cell-based.
For assay [32], the system named is OVCAR-3. In words: Cytotoxicity against human OVCAR-3 cells. In kind it is functional, cell-based.
The subject of assay [33] is A549. In words: Cytotoxicity against human A549 cells. In kind it is functional, cell-based.
The test system of assay [34] is Malme-3M. In words: Cytotoxicity against human Malme-3M cells. It is filed as functional, cell-based.
Assay [35] deals with PC-3. In words: Cytotoxicity against human PC-3 cells by MTT assay. In kind it is functional, cell-based.
The test system of assay [36] is HT-29. In words: Cytotoxicity against human HT-29 cells by MTT assay. It is filed as functional, cell-based.
The subject of assay [37] is HeLa. In words: Cytotoxicity against human HeLa cells by MTT assay. In kind it is functional, cell-based.
For assay [38], the system named is B16. In words: Cytotoxicity against mouse B16 cells by MTT assay. In kind it is functional, cell-based.
Assay [39] relates to Huh-7. Description: Cytotoxicity against human Huh-7 cells. In kind it is functional, cell-based.
Assay [40] concerns HCT-116. In words: Cytotoxicity against human HCT-116 cells. It is filed as functional, cell-based.
Assay [41] relates to T47D. In words: Antiproliferative activity against human T47D cells assessed as cell viability incubated for 24 hrs by MTT assay. In kind it is functional, cell-based.
Assay [42] concerns NCI-H460. In words: Antiproliferative activity against human NCI-H460 cells assessed as cell viability incubated for 24 hrs by MTT assay. In kind it is functional, cell-based. The following applies: NCI-H460, 24 h.
The subject of assay [43] is NCI-H460. Description: Antiproliferative activity against human NCI-H460 cells assessed as cell viability incubated for 48 hrs by MTT assay. It is filed as functional, cell-based. The following applies: NCI-H460, 48 h.
Assay [44] deals with HCT-116. Description: Antiproliferative activity against human HCT-116 cells assessed as cell viability incubated for 24 hrs by MTT assay. In kind it is functional, cell-based. The following applies: HCT-116, 24 h.
For assay [45], the system named is T47D. Description: Antiproliferative activity against human T47D cells assessed as cell viability incubated for 48 hrs by MTT assay. It is filed as functional, cell-based.
The test system of assay [46] is CNE. Description: Cytotoxicity against human CNE-1 cells incubated for 72 hrs by MTT assay. In kind it is functional, cell-based.
Assay [47] deals with SUNE1. In words: Cytotoxicity against human SUNE1 cells incubated for 72 hrs by MTT assay. In kind it is functional, cell-based. The following applies: SUNE1, 72 h.
Assay [48] is described as follows: Cytotoxicity against human QGY-7701 cells incubated for 72 hrs by MTT assay. It is filed as functional, cell-based. The following applies: QGY7701, 72 h.
In assay [49] the test system is CNE-2. Description: Cytotoxicity against human CNE-2 cells incubated for 72 hrs by MTT assay. In kind it is functional, cell-based. The following applies: CNE-2, 72 h.
Assay [50] has as its system HepG2. In words: Cytotoxicity against human HepG2 cells incubated for 72 hrs by MTT assay. It is filed as functional, cell-based. The settings on record: HepG2, 72 h.
The test system of assay [51] is HONE1 cell line. Description: Cytotoxicity against human HONE1 cell line incubated for 72 hrs by MTT assay. In kind it is functional, cell-based. The following applies: HONE1, 72 h.

In assay [1], `O=C(c1cc2c([nH]c3ccccc32)c(-c2ccccc2)n1)N1CCN(S(=O)(=O)c2ccc(Cl)cc2)CC1` had an IC50 of 2.8 µM.

Take `CN(C)c1ccc(-c2nc(C(=O)NCc3ccc(/C=C/C(=O)NO)cc3)cc3c2[nH]c2ccccc23)cc1`: the IC50 in assay [2], in [3], in assay [4], in [5] and in assay [6] was 1.84 µM throughout.

Regarding `O=c1ccc2nccc3c4ccccc4n1c23` [CANTHIN-6-ONE], the IC50 was determined as 15.8 µM in assay [7]; 10.5 µM in [8]; 9.43 µg/mL (≈ 42.8 µM) in assay [9]; 8.12 µg/mL (≈ 36.9 µM) in assay [10]; 1.11 µg/mL (≈ 5.04 µM) in assay [11].

For `O=C(c1cc2c([nH]c3ccccc32)c(-c2ccccc2)n1)N1CCN(S(=O)(=O)c2ccccc2)CC1`, in [1], inhibition was half-maximal at 0.59 µM (IC50).

With `COc1ccc2c(c1)[nH]c1c(/C=C/c3ccc([N+](=O)[O-])cc3)nccc12`, the IC50 in assay [12], in [13], in [14], in assay [15], in [16] and in assay [17] was 0.3 µg/mL (≈ 0.869 µM) in each case. Besides, in assay [18], the IC50 was 0.3 µg/mL (≈ 0.869 µM).

As to `CCCn1c2cc(OCCC(C)C)ccc2c2cc[n+](Cc3ccccn3)c(C)c21`, the IC50 in assay [19], in assay [20], in assay [21], in [22] and in assay [23] was 0.2 µM each time.

Turning to `COc1cc(-c2nc(Cn3cc(CN4C(=O)c5ccccc5C4=O)nn3)cc3c2[nH]c2ccccc23)cc(OC)c1OC`, the IC50 in assay [24], in [25], in assay [26], in assay [27] and in assay [28] was 3.67 µM each time.

For `CCCCCCCCCCCCCCCCCCCCCCCC(=O)N1CCc2c([nH]c3ccc(O)cc23)[C@H]1Cc1ccc(O)cc1`, the IC50 in assay [29], in [30] and in assay [31] was below 2 µM each time.

With `O=C1c2ccccc2-[n+]2ccc3c([nH]c4ccccc43)c21` [FASCAPLYSIN], the IC50 in assay [32] came out at 0.16 µg/mL; in [33], 0.38 µg/mL; in assay [29], 0.14 µg/mL; in [34] it was 0.03 µg/mL.

For `COc1cc(C(=O)/C=C/c2cc3c([nH]c4ccccc43)c(-c3cc(OC)c(OC)c(OC)c3)n2)cc(OC)c1OC`, the IC50 in assay [35], in assay [36], in assay [37] and in [38] was 5.3 µM each time.

For the molecule `Cc1ccc(-c2nc(NCc3ccc(C(=O)NO)cc3)cc3c2[nH]c2ccccc23)cc1`, the IC50 in assay [39], in assay [40] and in assay [29] was 0.53 µM in each case.

Consider `Cc1nccc2c3ccccc3n(CCCCn3c4ccccc4c4ccnc(C)c43)c12`, for which the IC50 in assay [41] was 9.88 µM; in assay [42], 10.9 µM; in assay [43] it was 9.58 µM; in assay [44] it was 5.09 µM; in assay [45], 8.22 µM.

As for `O=C(c1nccc2c1[nH]c1ccccc12)[C@@H](O)CCCO`, the IC50 in assay [46] came to 16.3 µM; in [47], 45.3 µM; in assay [48], 29 µM; in [49], 20.6 µM; in [50] it was 50.9 µM; in assay [51] it was 20.1 µM.

Source of the values: ChEMBL document CHEMBL5241090, “A comprehensive overview of β-carbolines and its derivatives as anticancer agents” (Eur J Med Chem, 2021).
